The values that follow come from ChEMBL document CHEMBL1201862, “PubChem BioAssay data set” (2004).

Test [1] relates to Streptococcus. Put plainly: GAS UMAA2166 growth inhibition – luminescence, BacTiterGlo, counter-screen for streptokinase expression inhibitor project, dose response (AID 1915).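 Further: potency for reduction of bacterial viability or growth.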 The format is functional, organism-based.
For test [2], the target named is T1, Replicative DNA helicase DnaB (Mycobacterium tuberculosis, UniProt P9WMR3).
T1 sequence (P9WMR3 whole entry): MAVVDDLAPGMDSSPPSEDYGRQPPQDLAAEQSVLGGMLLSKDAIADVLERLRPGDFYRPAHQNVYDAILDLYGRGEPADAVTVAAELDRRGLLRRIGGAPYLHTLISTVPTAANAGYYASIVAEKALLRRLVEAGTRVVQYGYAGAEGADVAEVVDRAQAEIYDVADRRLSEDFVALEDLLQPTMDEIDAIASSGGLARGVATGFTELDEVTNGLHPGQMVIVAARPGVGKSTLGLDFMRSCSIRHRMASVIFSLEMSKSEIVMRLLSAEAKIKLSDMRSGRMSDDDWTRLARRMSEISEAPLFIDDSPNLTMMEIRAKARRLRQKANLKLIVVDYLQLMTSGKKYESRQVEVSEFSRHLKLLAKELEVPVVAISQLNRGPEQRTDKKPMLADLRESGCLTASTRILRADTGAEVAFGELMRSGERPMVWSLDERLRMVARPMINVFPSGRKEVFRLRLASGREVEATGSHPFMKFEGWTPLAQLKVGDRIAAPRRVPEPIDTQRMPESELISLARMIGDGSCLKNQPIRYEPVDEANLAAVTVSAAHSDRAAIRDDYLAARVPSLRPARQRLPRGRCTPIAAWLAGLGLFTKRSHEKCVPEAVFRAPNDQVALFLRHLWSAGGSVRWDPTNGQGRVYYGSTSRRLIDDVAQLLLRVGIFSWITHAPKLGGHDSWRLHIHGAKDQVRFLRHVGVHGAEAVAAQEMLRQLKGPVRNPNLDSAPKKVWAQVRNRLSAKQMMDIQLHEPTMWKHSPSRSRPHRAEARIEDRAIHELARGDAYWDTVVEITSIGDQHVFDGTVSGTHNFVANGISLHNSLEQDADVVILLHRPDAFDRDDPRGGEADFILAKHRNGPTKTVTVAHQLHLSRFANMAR
The test is described as follows: DnaB intein splicing inhibitors, dose response, biochemical, cell-free fluorescence (AID 449749). In kind it is functional.

Test [3] addresses T2, Protein RecA (Mycobacterium tuberculosis, UniProt P9WHJ3).
T2 sequence (P9WHJ3 whole entry): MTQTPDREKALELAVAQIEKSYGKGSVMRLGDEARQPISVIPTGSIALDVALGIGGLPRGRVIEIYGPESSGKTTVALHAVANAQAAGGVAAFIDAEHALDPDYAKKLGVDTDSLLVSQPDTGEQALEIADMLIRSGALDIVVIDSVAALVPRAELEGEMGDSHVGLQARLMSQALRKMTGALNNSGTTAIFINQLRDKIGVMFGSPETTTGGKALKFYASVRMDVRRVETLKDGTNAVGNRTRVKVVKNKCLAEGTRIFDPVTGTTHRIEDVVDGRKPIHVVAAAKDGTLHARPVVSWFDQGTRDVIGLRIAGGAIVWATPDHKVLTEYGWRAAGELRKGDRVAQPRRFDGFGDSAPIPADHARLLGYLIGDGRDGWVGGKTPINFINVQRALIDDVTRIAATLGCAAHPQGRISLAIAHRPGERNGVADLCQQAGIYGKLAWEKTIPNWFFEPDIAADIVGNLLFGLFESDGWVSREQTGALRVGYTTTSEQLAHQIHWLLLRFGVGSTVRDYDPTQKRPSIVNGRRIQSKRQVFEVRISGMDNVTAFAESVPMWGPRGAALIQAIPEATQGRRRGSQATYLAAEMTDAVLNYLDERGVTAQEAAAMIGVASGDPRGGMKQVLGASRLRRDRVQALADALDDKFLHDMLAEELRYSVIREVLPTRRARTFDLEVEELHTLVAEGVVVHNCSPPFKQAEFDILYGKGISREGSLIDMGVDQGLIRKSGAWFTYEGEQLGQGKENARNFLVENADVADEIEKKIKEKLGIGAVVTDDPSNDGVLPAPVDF
The test is described as follows: Fluorescence Cell-Free Homogeneous Dose Retest to Identify Inhibitors of RecA-Intein Splicing Activity. [Related pubchem assays (depositor defined):AID2097, AID2223, AID489010, AID492950]. In kind it is functional.

The source made the active and inactive calls. For most assays here, no stated cut-off is given here; in the data, actives have a measured EC50 and inactives only a lower limit.

In general, EC50 refers to the midpoint of the concentration-response curve. As a reminder, the AC50 is the concentration giving half of the maximal activity seen. `CCCCn1c(NS(=O)(=O)c2ccccc2)c(S(=O)(=O)c2ccc(C)cc2)c2nc3ccccc3nc21`: the half-maximal effective concentration (EC50) in test [1] is 14.1 µM (active); in test [3], 0.0801 µM (inconclusive). Besides, the AC50 in test [2] is > 380 µM (inactive).
